This is an account of results in US5334594A, “Amphoteric tricyclic compound” (Hokoriku Pharmaceutical Co., Ltd., priority 1992, dated 1994).

For assay [1], the system named is compound 48/80-induced lethality (antihistaminic (H1) activity). Kind of assay: Inhibitory effect on compound 48/80-induced lethality in rats (antihistaminic activity). It is filed as in vivo, rat (male Wistar). The note with it: Rattus norvegicus, po, 2 h; 1 mg/kg orally one hour before compound 48/80 (1 mg/kg i.v.); survival after two hours; read-out: Survival rate. On the procedure: 1. Inhibitory Effects on Compound 48/80-Induced Lethality in Rats (Antihistaminic Activity)
The evaluation of antihistaminic activity was carried out according to the method of Niemegeers et al. (Arch. Int. Pharmacodyn. Ther., 234, 164 (1978)).
Male Wistar rats, 6 weeks of age, were used in the experiments. Compound 48/80 (formaldehyde condensation product of p-methoxy-N-methylphenethylamine) was administered intravenously to rats at a lethal dose of 1 mg/kg. Survival rates were determined according to an all or non criteria by using the numbers of rats that survived after two hours. Test compounds (1 mg/kg) were administered orally to rats one hour before the administration of compound 48/80.

For assay [2], the system named is 48 h homologous passive cutaneous anaphylaxis (PCA). The assay is described as follows: Inhibitory effects on 48 h homologous passive cutaneous anaphylaxis (PCA) in rats (antiallergic activity). It is filed as in vivo, rat (male Wistar). The note with it: 1 mg/kg orally one hour before antigen challenge. Here is the method:
2. Inhibitory Effects on 48 h Homologous Passive Cutaneous Anaphylaxis (PCA) in Rats (Antiallergic Activity)
The induction and evaluation of antiallergic activity were carried out according to the method of Makino et al. (Japan J. Pharmacology, 52, 87 (1990)).
Male Wistar rats, 6 weeks of age, were passively sensitized by intracutaneous injection on the back at a volume of 0.1 ml of 20- or 40-fold diluted anti-DNP-As rat serum. After 48 hours, the animals were challenged by an intravenous injection of 0.5 ml saline solution containing 1 mg of DNP-As and 5 mg of Evans blue. The animals were sacrificed 30 minutes after the challenge and then the extravasated dye was extracted with 1N KOH and acetone. After neutralization with 1N H3 PO4, the amount of dye was determined by measuring the absorbance of the extract at 620 nm. Test compounds (1 mg/kg) were orally administered to rats one hour before the antigen challenge. The inhibitory activity of test compounds were obtained as percent inhibition of PCA by comparing the results obtained from control rats.

A further assay has as its target T1, histamine (H1) receptor (Cavia porcellus, UniProt P31389).
T1 construct: Separated cerebral cortices were homogenized in 50-folds volume of 50 mM Na/K-phosphate buffer (pH 7.4); from tissue; host or cells: guinea-pig cerebral cortex, crude membrane fraction (homogenate)
The assay is described as follows: Inhibitory effects on ex vivo [^3 H]-mepyramine binding to guinea-pig cerebral cortex (degree of penetration into brain). Format: in vivo, guinea-pig (male Hartley). The settings on record: for ED50: 2 h, oral, two hours, ex vivo [^3 H]-mepyramine binding, guinea-pig cerebral cortex, read-out: Degree of penetration activity (A) ID50; for Selectivity (C/B): ratio of ID50 (brain penetration, C) to ED50 (antiasthmatic activity, B). Here is the method:
4. Inhibitory Effects on Ex Vivo [^3 H]-Mepyramine Binding to Guinea-Pig Cerebral Cortex (Degree of Penetration into Brain)
The evaluation of histamine (H1) receptor affinity on guinea-pig cerebral cortex was carried out according to the method of Ahn et al. (Eur. J. Pharmacol., 127, 153 (1986)).
Male Hartley guinea-pigs, 6 weeks of age, were administered orally with test compounds or vehicles. After two hours, animals were killed by exsanguination and brains were rapidly isolated. Separated cerebral cortices were homogenized in 50-folds volume of 50 mM Na/K-phosphate buffer (pH 7.4). These homogenates were used as crude membrane fractions for receptor binding assay. [^3 H]-mepyramine was used as a radio-active ligand. […] The ID50 values (doses which induce 50% inhibition of specific binding of vehicle treated group) were calculated using dose-inhibition curves.

For assay [3], the target named is muscarinic acetylcholine receptor. Kind of assay: Inhibition of [^3 H]-QNB binding to rat cerebral cortex membrane (muscarinic acetylcholine receptor binding assay). The settings on record: -log Ki by Cheng and Prusoff.
Assay [4] deals with histamine-induced bronchoconstriction. Kind of assay: Inhibitory effects on histamine-induced bronchoconstriction in anesthetized guinea-pigs (antiasthmatic activity). The note with it: for ED50: Cavia porcellus, 2 h, read-out: Antiasthmatic activity (B) ED50. Format: in vivo, guinea-pig (male Hartley). Here is the method:
3. Inhibitory Effects on Histamine-Induced Bronchoconstriction in Anesthetized Guinea-Pigs (Antiasthmatic Activity)
The induction and evaluation of antiasthmatic activity were carried out according to the method of Makino et al. (J. Pharm. Pharmacol., 42, 236 (1990)).
Male Hartley guinea-pigs, 6 weeks of age, were anesthetized with urethane ( 1.5 g/kg, i.p. ). The carotid artery and jugular vein were cannulated to measure arterial blood pressure and to facilitate intravenous histamine administration. The trachea was cannulated and the animals were ventilated using a respiratory pump (60 strokes/min; 4 ml/stroke). Changes in insufflation pressure induced by the administration of histamine (20 μg/kg, i.v.) at a constant airflow were constantly monitored as percentage values based on the maximum pressure (100%) (Bronchospasm tramsducer 7020, Ugo Basile). Test compounds were administered orally to animals two hours before the administration of histamine. The ED50 values (doses which induce 50% inhibition of histamine-induced broncho-constriction compared to inhibition observed in control) were calculated using dose-inhibition curves.

[5] abbreviates: oral, two hours before histamine (20 μg/kg, i.v.), anesthetized guinea-pigs.

Counter-ions that a name gives are not always drawn. Like-named read-outs stand apart in the source and are kept apart here.

Usually pKi stands for −log10 of the Ki, conventionally taken in molar units.

T1 sequence (P31389 whole entry): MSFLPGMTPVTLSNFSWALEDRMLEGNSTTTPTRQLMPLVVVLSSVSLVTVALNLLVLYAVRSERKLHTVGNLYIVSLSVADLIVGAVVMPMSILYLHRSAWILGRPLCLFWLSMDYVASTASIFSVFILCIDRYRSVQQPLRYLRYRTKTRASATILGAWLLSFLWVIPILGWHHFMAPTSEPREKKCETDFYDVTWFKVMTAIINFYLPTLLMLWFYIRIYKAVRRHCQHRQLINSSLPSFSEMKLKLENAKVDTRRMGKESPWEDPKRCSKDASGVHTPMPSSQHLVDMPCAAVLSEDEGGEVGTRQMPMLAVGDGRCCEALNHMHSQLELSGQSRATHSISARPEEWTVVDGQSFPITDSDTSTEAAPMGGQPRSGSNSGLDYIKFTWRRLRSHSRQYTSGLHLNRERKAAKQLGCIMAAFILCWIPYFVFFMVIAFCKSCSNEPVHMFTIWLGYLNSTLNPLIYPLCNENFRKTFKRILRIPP

Regarding `O=C(O)CCN1CCC(=C2c3cccc(Cl)c3OCc3cccnc32)CC1` [Example 4-(2), 3-[4-(7-Chloro-5,11-dihydrobenz[b]oxepino[4,3-b]pyridin-11-ylidene)piperidino]propionic Acid. Hydrochloride], the responders at 1 mg/kg in assay [1] came to 100%.
Turning to `CN1CCC(=C2c3ccccc3CCc3cccnc32)CC1` [Reference compound A, Azatadine, reference compound], the “Antiallergic activity (A) inhibition (%)” value in assay [2] is given as 77%. On histamine (H1) receptor, the ED50 came to 0.028 mg/kg and the “Selectivity (C/B)” value is recorded as 28. Also, the pKi in assay [3] stood at 8.47. For the same molecule, the ED50 in assay [4] (setting [5]) came to 0.001 mg/kg. The responders at 1 mg/kg in assay [1] is 60%.
With `O=C(O)CCCN1CCC(=C2c3ccc(F)cc3Oc3cccnc32)CC1` [Example 23-(2), 4-[4-(7-Fluoro-10H-benzo[b]pyrano[3,2-b]pyridin-10-ylidene)piperidino]butyric Acid], the responders at 1 mg/kg in assay [1] came out at 100%.
The same measure, in the same setting: then `O=C(O)CCCCN1CCC(=C2c3ccc(F)cc3OCc3cccnc32)CC1` [Example 11-(2), 5-[4-(8-Fluoro-5,11-dihydrobenz[b]oxepino[4,3-b]pyridin-11-ylidene)piperidino]valetic Acid], with 100%.
Still for that read-out and setting: then `O=C(O)CCN1CCC(=C2c3cc(Cl)ccc3OCc3cccnc32)CC1` [Example 6-(2), 3-[4-(9-Chloro-5,11-dihydrobenz[b]oxepino[4,3-b]pyridin-11-ylidene)piperidino]propionic Acid], with 100%; and `CC(CN1CCC(=C2c3ccc(F)cc3OCc3cccnc32)CC1)C(=O)O` (stereo not shown) [Example 14-(2), 3-[4-(8-Fluoro-5,11-dihydrobenz[b]oxepino[4,3-b]pyridin-11-ylidene)piperidino]-2-methylpropionic Acid], with 100%; and `O=C(O)CCN1CCC(=C2c3ccccc3Oc3cccnc32)CC1` [Example 8-(2), 3-[4-(10H-benzo[b]pyrano[3,2-b]pyridin-10-ylidene)piperidino]propionic Acid], with 100%.
Consider `CC(=O)N1CCC(=C2c3ccc(Cl)cc3OCc3cccnc32)CC1` [Reference compound C], for which the “Antiallergic activity (A) inhibition (%)” value in assay [2] is -11%. Moreover, in assay [3], the pKi is listed as 5.72. The “Antiasthmatic activity (B) ED50” value in assay [4] (setting [5]) is recorded as “No effect (1 mg/kg)”. Also, the responders at 1 mg/kg in assay [1] is 20%.
In the case of `O=C(O)CCN1CCC(=C2c3ccc(F)cc3OCc3cccnc32)CC1` [Example 2-(2), 3-[4-(8-Fluoro-5,11-dihydrobenz[b]oxepino[4,3-b]pyridin-11-ylidene)piperidino]propionic Acid], in assay [2], the “Antiallergic activity (A) inhibition (%)” value came out at 78%. Besides, the ED50 on histamine (H1) receptor was determined as 32 mg/kg; in assay [4] (setting [5]) it was 0.046 mg/kg. For the same molecule, the “Selectivity (C/B)” value at histamine (H1) receptor turned out to be 696. In assay [3], the pKi is given as < 5. The responders at 1 mg/kg in assay [1] stood at 100%.
Regarding `O=C(O)CCN1CCC(=C2c3ccc(Cl)cc3OCc3cccnc32)CC1` [Example 5-(2), 3-[4-(8-Chloro-5,11-dihydrobenz[b]oxepino[4,3-b]pyridin-11-ylidene)piperidino]propionic Acid. Hydrochloride], the “Antiallergic activity (A) inhibition (%)” value in assay [2] is reported as 79%. Moreover, on histamine (H1) receptor, the ED50 is 53 mg/kg and the “Selectivity (C/B)” value is recorded as 2304. Also, the pKi in assay [3] was < 5. Also, the ED50 in assay [4] (setting [5]) worked out at 0.023 mg/kg. For the same molecule, the responders at 1 mg/kg in assay [1] is 100%.
`O=C(O)CCCCN1CCC(=C2c3ccc(Cl)cc3OCc3cccnc32)CC1` [Example 20-(2), 5-[4-(8-Chloro-5,11-dihydrobenz[b]oxepino[4,3-b]pyridin-11-ylidene)piperidino]valeric Acid. Hydrochloride]: the responders at 1 mg/kg in assay [1] amounted to 100%.
Still for that read-out and setting: the same measure for `O=C(O)CCN1CCC(=C2c3ccc(F)cc3Oc3cccnc32)CC1` [Example 9-(2), 3-[4-(7-Fluoro-10H-benzo[b]pyrano[3,2-b]pyridin-10-ylidene)piperidino]propionic Acid]: 100%; for `O=C(O)CCCCCN1CCC(=C2c3ccc(F)cc3OCc3cccnc32)CC1` [Example 12-(2), 6-[4-(8-Fluoro-5,11-dihydrobenz[b]oxepino[4,3-b]pyridin-11-ylidene)piperidino]hexanoic Acid . Hydrochloride]: 100%; for `O=C(O)CCCN1CCC(=C2c3ccc(F)cc3OCc3cccnc32)CC1` [Example 10-(2), 4-[4-(8-Fluoro-5,11-dihydrobenz[b]oxepino[4,3-b]pyridin-11-ylidene)piperidino]butyric Acid]: 100%.
The same measure, in the same setting: then `O=C(O)CCCN1CCC(=C2c3ccc(Cl)cc3OCc3cccnc32)CC1` [Example 18-(2), 4-[4-(8-Chloro-5,11-dihydrobenz[b]oxepino[4,3-b]pyridin-11-ylidene)piperidino]butyric Acid. Hydrochloride], with 80%.
In the case of `CCOC(=O)CN1CCC(=C2c3ccc(Cl)cc3CCc3cccnc32)CC1` [Reference compound D, reference compound], the “Antiallergic activity (A) inhibition (%)” value in assay [2] was 41%. Moreover, on histamine (H1) receptor, the ED50 was 11 mg/kg and the “Selectivity (C/B)” value was 38. For the same molecule, the pKi in assay [3] came to 5.84. For the same molecule, in assay [4] (setting [5]), the ED50 was determined as 0.29 mg/kg. Further, the responders at 1 mg/kg in assay [1] worked out at 40%.
`CCOC(=O)N1CCC(=C2c3ccc(Cl)cc3CCc3cccnc32)CC1` [Reference compound B, Loratadine]: in assay [2], the “Antiallergic activity (A) inhibition (%)” value stood at 38%. Also, in assay [3], the pKi is reported as 6.04. For the same molecule, the ED50 in assay [4] (po) was 0.13 mg/kg. Also, the responders at 1 mg/kg in assay [1] was 60%.
For `O=C(O)CCN1CCC(=C2c3ccccc3OCc3cccnc32)CC1` [Example 1-(2), 3-[4-(5,11-Dihydrobenz[b]oxepino[4,3-b]pyridin-11-ylidene)piperidino]propionic Acid.Hydrochloride], the “Antiallergic activity (A) inhibition (%)” value in assay [2] is 80%. Moreover, at histamine (H1) receptor, the ED50 was found to be 36 mg/kg and the “Selectivity (C/B)” value amounted to 439. In addition, in assay [4] (setting [5]), the ED50 worked out at 0.082 mg/kg. Further, in assay [1], the responders at 1 mg/kg was found to be 80%.
Take `O=C(O)CCCCCN1CCC(=C2c3ccc(Cl)cc3OCc3cccnc32)CC1` [Example 21-(2), 6-[4-(8-Chloro-5,11-dihydrobenz[b]oxepino[4,3-b]pyridin-11-ylidene)piperidino]hexanoic Acid . Hydrochloride]: the responders at 1 mg/kg in assay [1] came to 100%.
